Read-outs that look alike come from different tables or passages of the source.
Tests used:
[1] = target: T1, plasma kallikrein (Homo sapiens, UniProt P03952); test: Neat human plasma assay, FXIIa contact pathway-activated, PFR-AMC substrate; type: biochemical; settings: read-out: Human Plasma Assay: IC90
T1 construct: from tissue
In short: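 Compound inhibition of plasma kallikrein measured as PFR-AMC (100 μM) cleavage rate over 5 min at room temperature in 78% citrated human plasma activated with 10 nM FXIIa (Tris pH 7.5 buffer). IC50/IC90 from 4-parameter fit of rate versus inhibitor concentration.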

[2] = target: human activated kallikrein enzyme (Homo sapiens, UniProt P03952); test: Plasma kallikrein inhibition, fluorogenic PFR-AMC substrate, 500 pM activated kallikrein format; type: biochemical; settings: 300 uM PFR-AMC, 30 min preincubation, 10 min reaction
Sequence of human activated kallikrein enzyme (P03952 391-638 limits assumed): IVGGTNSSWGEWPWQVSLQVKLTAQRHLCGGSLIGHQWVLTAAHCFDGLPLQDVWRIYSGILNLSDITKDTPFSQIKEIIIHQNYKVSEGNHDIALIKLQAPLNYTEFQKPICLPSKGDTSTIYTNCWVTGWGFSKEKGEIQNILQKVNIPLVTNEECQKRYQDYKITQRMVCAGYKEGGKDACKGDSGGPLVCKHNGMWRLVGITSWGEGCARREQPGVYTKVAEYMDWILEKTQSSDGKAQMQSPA
Sequence of human activated kallikrein enzyme (P03952 20-390 partner limits assumed): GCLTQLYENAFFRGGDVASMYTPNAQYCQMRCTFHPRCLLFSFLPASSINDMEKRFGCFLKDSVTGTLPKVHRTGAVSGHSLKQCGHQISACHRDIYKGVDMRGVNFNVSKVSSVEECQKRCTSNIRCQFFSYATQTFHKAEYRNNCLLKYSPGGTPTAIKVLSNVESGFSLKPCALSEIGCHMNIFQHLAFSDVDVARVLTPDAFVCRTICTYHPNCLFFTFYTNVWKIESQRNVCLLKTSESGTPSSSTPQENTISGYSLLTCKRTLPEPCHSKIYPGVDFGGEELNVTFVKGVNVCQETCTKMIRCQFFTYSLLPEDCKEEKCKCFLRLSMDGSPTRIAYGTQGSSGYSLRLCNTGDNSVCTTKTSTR
In short: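 Fluorescence (ex 380/em 460 nm) is read after 10 min of 300 uM PFR-AMC turnover by 500 pM enzyme at RT. Compounds sit with enzyme for 30 min beforehand. Buffer is Tris (pH 7.5) with EDTA, NaCl, PEG-400 and Triton X-100; EC50 values are banded.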

[3] = citrated human plasma 78% final, 10 nM human FXIIa, 100 μM PFR-AMC
[4] = 500 pM activated kallikrein, read-out: Primary Dose Response Assay: Average EC50

T1 sequence (P03952 391-638 limits assumed): as the sequence (P03952 391-638 limits assumed) above
T1 sequence (P03952 20-390 partner limits assumed): as the sequence (P03952 20-390 partner limits assumed) above

Row | IC90 [1, 3] | EC50 [2, 4] | SMILES | IC90 [1] | EC50 ([2]; Primary Dose Response Assay: Average EC50, 500 pM activated kallikrein)
1 | 10000 to 48000 nM | < 1 nM | Cc1ccnc([C@H]2C[C@@H]2C(=O)Nc2cc(NCc3cn4cc(C5CC5)ccc4n3)ccn2)n1 (racemic) [Example 414, rac-(1S*,2S*)-N-(4-(((6-cyclopropylimidazo[1,2-a]pyridin-2-yl)methyl)amino)pyridin-2-yl)-2-(4-methylpyrimidin-2-yl)cyclopropane-1-carboxamide] |  | 
2 | 400 to 1500 nM | < 1 nM | CN1CC2(C1)CN(c1cc(C3CC3)cn3cc(CNc4ccnc(NC(=O)[C@H]5C[C@@H]5c5cccc(Cl)c5)c4)nc13)C2 [Example 140, (1S,2S)-2-(3-chlorophenyl)-N-(4-(((6-cyclopropyl-8-(6-methyl-2,6-diazaspiro[3.3]heptan-2-yl)imidazo[1,2-a]pyridin-2-yl)methyl)amino)pyridin-2-yl)cyclopropane-1-carboxamide] |  | 
3 | 400 to 1500 nM | < 1 nM | O=C(Nc1cc(NCc2cn3cc(C4CC4)cc(N4CCCC4=O)c3n2)ccn1)[C@H]1C[C@@H]1c1cccc(Cl)c1 [Example 85, (1S,2S)-2-(3-chlorophenyl)-N-(4-(((6-cyclopropyl-8-(2-oxopyrrolidin-1-yl)imidazo[1,2-a]pyridin-2-yl)methyl)amino)pyridin-2-yl)cyclopropane-1-carboxamide] |  | 
4 | 10000 to 48000 nM | 1 to 10 nM | O=C(Nc1nsc(NCc2cn3cc(C4CC4)ccc3n2)n1)[C@H]1C[C@@H]1c1cc(Cl)ccn1 (racemic) [Example 614] |  | 
5 | < 400 nM | < 1 nM | Cc1ccnc([C@H]2C[C@@H]2C(=O)Nc2cc(NCc3cn4cc(C5CC5)cc(N5CC(=O)N(C)C5=O)c4n3)nc(C)n2)n1 (racemic) [Example 366, rac-(1S*,2S*)-N-(6-(((6-cyclopropyl-8-(3-methyl-2,4-dioxoimidazolidin-1-yl)imidazo[1,2-a]pyridin-2-yl)methyl)amino)-2-methylpyrimidin-4-yl)-2-(4-methylpyrimidin-2-yl)cyclopropane-1-carboxamide] |  | 
6 | 1500 to 10000 nM | 1 to 10 nM | Cc1ccnc([C@H]2C[C@@H]2C(=O)Nc2cc(N3C[C@@H](O)C[C@@H]3c3cn4cc(C5CC5)ccc4n3)ncn2)c1 (relative stereo) [Example 472, rac-(1S*,2S*)-N-(6-((2R,4S)-2-(6-cyclopropylimidazo[1,2-a]pyridin-2-yl)-4-hydroxypyrrolidin-1-yl)pyrimidin-4-yl)-2-(4-methylpyridin-2-yl)cyclopropane-1-carboxamide] |  | 
7 | < 400 nM | < 1 nM | Cc1ccnc([C@H]2C[C@@H]2C(=O)Nc2cc(NCc3cn4cc(C5CC5)cc(N5CC6(COC6)OC5=O)c4n3)ncn2)n1 [Example 372, (1S,2S)-N-(6-(((6-cyclopropyl-8-(6-oxo-2,5-dioxa-7-azaspiro[3.4]octan-7-yl)imidazo[1,2-a]pyridin-2-yl)methyl)amino)pyrimidin-4-yl)-2-(4-methylpyrimidin-2-yl)cyclopropane-1-carboxamide] |  | 
8 | > 48000 nM | < 1 nM | CCOC(=O)CN1CCN(c2cc(C3CC3)cn3cc(CNc4ccnc(NC(=O)[C@H]5C[C@@H]5c5cccc(Cl)c5)c4)nc23)CC1 [Example 600, ethyl 2-(4-(2-(((2-((1S,2S)-2-(3-chlorophenyl)cyclopropane-1-carboxamido)pyridin-4-yl)amino)methyl)-6-cyclopropylimidazo[1,2-a]pyridin-8-yl)piperazin-1-yl)acetate] |  | 
9 | 1500 to 10000 nM | < 1 nM | O=C(Nc1cc(NCc2cn3cc(C4CC4)cc(NC4COC4)c3n2)ccn1)[C@H]1C[C@@H]1c1cccc(Cl)c1 [Example I-26, (1S,2S)-2-(3-chlorophenyl)-N-(4-(((6-cyclopropyl-8-(oxetan-3-ylamino)imidazo[1,2-a]pyridin-2-yl)methyl)amino)pyridin-2-yl)cyclopropane-1-carboxamide] |  | 
10 | 400 to 1500 nM | < 1 nM | Cc1ccnc([C@H]2C[C@@H]2C(=O)Nc2cncc(NCc3cn4cc(C5CC5)cc(N5CC(=O)N(C)C5=O)c4n3)n2)n1 (racemic) [Example 526, rac-(1S*,2S*)-N-(6-(((6-cyclopropyl-8-(3-methyl-2,4-dioxoimidazolidin-1-yl)imidazo[1,2-a]pyridin-2-yl)methyl)amino)pyrazin-2-yl)-2-(4-methylpyrimidin-2-yl)cyclopropane-1-carboxamide] |  | 
11 | 1500 to 10000 nM | < 1 nM | CC(=O)Nc1cc(C2CC2)cn2cc(CNc3ccnc(NC(=O)[C@H]4C[C@@H]4c4cccc(Cl)c4)c3)nc12 [Example 142, (1S,2S)-N-(4-(((8-acetamido-6-cyclopropylimidazo[1,2-a]pyridin-2-yl)methyl)amino)pyridin-2-yl)-2-(3-chlorophenyl)cyclopropane-1-carboxamide] |  | 
12 | 400 to 1500 nM | < 1 nM | O=C(Nc1cc(NCc2cn3cc(C4CC4)cc(N4CCS(=O)(=O)CC4)c3n2)ncn1)[C@H]1C[C@@H]1c1cc(Cl)ccn1 [Example 326, (1S,2S)-2-(4-chloropyridin-2-yl)-N-(6-(((6-cyclopropyl-8-(1,1-dioxidothiomorpholino)imidazo[1,2-a]pyridin-2-yl)methyl)amino)pyrimidin-4-yl)cyclopropane-1-carboxamide] |  | 

Second part, the compound before the results:

Row | SMILES | IC90 [1, 3] | EC50 [2, 4] | IC90 [1] | EC50 ([2]; Primary Dose Response Assay: Average EC50, 500 pM activated kallikrein)
13 | CN1C(=O)CN(c2cc(C3CC3)cn3cc(CNc4cc(NC(=O)[C@H]5C[C@@H]5c5cc(Cl)ccc5C#N)ncn4)nc23)C1=O (racemic) [Example I-170, rac-(1S*,2S*)-2-(5-chloro-2-cyanophenyl)-N-(6-(((6-cyclopropyl-8-(3-methyl-2,4-dioxoimidazolidin-1-yl)imidazo[1,2-a]pyridin-2-yl)methyl)amino)pyrimidin-4-yl)cyclopropane-1-carboxamide] | 1500 to 10000 nM | < 1 nM |  | 
14 | CN1C(=O)CN(c2cc(C3CC3)cn3cc(CNc4cc(NC(=O)[C@H]5C[C@@H]5c5nc(Cl)ccc5C#N)ncn4)nc23)C1=O (racemic) [Example I-167, rac-(1S*,2S*)-2-(6-chloro-3-cyanopyridin-2-yl)-N-(6-(((6-cyclopropyl-8-(3-methyl-2,4-dioxoimidazolidin-1-yl)imidazo[1,2-a]pyridin-2-yl)methyl)amino)pyrimidin-4-yl)cyclopropane-1-carboxamide] | 400 to 1500 nM | < 1 nM |  | 
15 | O=C(Nc1cc(NCc2cn3cc(C4CC4)ccc3n2)ccn1)[C@@]1(F)C[C@@H]1c1cccc(Cl)c1 (racemic) [Example I-217, rac-(1S*,2S*)-2-(3-chlorophenyl)-N-(4-(((6-cyclopropylimidazo[1,2-a]pyridin-2-yl)methyl)amino)pyridin-2-yl)-1-fluorocyclopropane-1-carboxamide] | 10000 to 48000 nM | 1 to 10 nM |  | 
16 | Cc1ccnc([C@H]2C[C@@H]2C(=O)Nc2cc(N[C@H](C)c3cn4cc(CF)cc(N5CC(=O)N(C)C5=O)c4n3)ncn2)n1 [Example 678, (1S,2S)—N-(6-(((R)-1-(6-(fluoromethyl)-8-(3-methyl-2,4-dioxoimidazolidin-1-yl)imidazo[1,2-a]pyridin-2-yl)ethyl)amino)pyrimidin-4-yl)-2-(4-methylpyrimidin-2-yl)cyclopropane-1-carboxamide] |  |  | < 400 nM | < 1 nM
17 | N#Cc1ccc(Cl)c(F)c1[C@H]1C[C@@H]1C(=O)Nc1cc(NCc2cn3cc(C4CC4)ccc3n2)ncn1 (racemic) [Example 50, rac-(1S*,2S*)-2-(3-chloro-6-cyano-2-fluorophenyl)-N-(6-(((6-cyclopropylimidazo[1,2-a]pyridin-2-yl)methyl)amino)pyrimidin-4-yl)cyclopropane-1-carboxamide] | 10000 to 48000 nM | 1 to 10 nM |  | 
18 | Cc1ccnc([C@H]2C[C@@H]2C(=O)Nc2cc(N[C@H](C)c3cn4cc(C(C)C)cc(N5CC(=O)N(C)C5=O)c4n3)ncn2)n1 [Example I-679, (1S,2S)—N-(6-(((R)-1-(6-isopropyl-8-(3-methyl-2,4-dioxoimidazolidin-1-yl)imidazo[1,2-a]pyridin-2-yl)ethyl)amino)pyrimidin-4-yl)-2-(4-methylpyrimidin-2-yl)cyclopropane-1-carboxamide] | < 400 nM | < 1 nM |  | 
19 | O=C(Nc1cc(N2C[C@@H](O)C[C@@H]2c2cn3cc(C4CC4)ccc3n2)ncn1)[C@H]1C[C@@H]1c1nccc(Cl)n1 (relative stereo) [Example 481, rac-(1S*,2S*)-2-(4-chloropyrimidin-2-yl)-N-(6-((2R,4S)-2-(6-cyclopropylimidazo[1,2-a]pyridin-2-yl)-4-hydroxypyrrolidin-1-yl)pyrimidin-4-yl)cyclopropane-1-carboxamide] | 1500 to 10000 nM | < 1 nM |  | 
20 | O=C1CN(c2cc(C3CC3)cn3cc(CNc4ccnc(NC(=O)[C@H]5C[C@@H]5c5cc(Cl)ccn5)n4)nc23)C(=O)N1 (racemic) [Example 521, rac-(1S*,2S*)-2-(4-chloropyridin-2-yl)-N-(4-(((6-cyclopropyl-8-(2,4-dioxoimidazolidin-1-yl)imidazo[1,2-a]pyridin-2-yl)methyl)amino)pyrimidin-2-yl)cyclopropane-1-carboxamide] | 400 to 1500 nM | < 1 nM |  | 
21 | CN1CCN(C(=O)c2cc(C3CC3)cn3cc(CNc4cc(NC(=O)[C@H]5C[C@@H]5c5cccc(Cl)c5)ncn4)nc23)CC1 [Example 301, (1S,2S)-2-(3-chlorophenyl)-N-(6-(((6-cyclopropyl-8-(4-methylpiperazine-1-carbonyl)imidazo[1,2-a]pyridin-2-yl)methyl)amino)pyrimidin-4-yl)cyclopropane-1-carboxamide] | 1500 to 10000 nM | < 1 nM |  | 

Source: patent US20240228488A1 (TAKEDA PHARMACEUTICAL COMPANY LIMITED, priority 2021, published 2024)
